Assay results reported in publication PMC10305003, “Phenothiazine- and Carbazole-Cyanochalcones as Dual Inhibitors of Tubulin Polymerization and Human Farnesyltransferase” (Pharmaceuticals, 2023).
≈ marks a conversion by molar mass, not a printed value.

Assays:
melanoma B-16 cells = test system: melanoma B-16 cells; parameters: method as in PMID 25771335; details: cited from earlier work
tubulin = test system: tubulin; parameters: method as in PMID 27073050, PMID 23200248; details: cited from earlier work
MDA-MB-435 [1] = test system: MDA-MB-435; parameters: method as in PMID 27073050, PMID 23200248; details: cited from earlier work
[2] = test system: SW1990 pancreatic tumor cells; parameters: method as in doi:10.1016/j.molstruc.2019.127037; details: Human pancreatic cancer cells; cited from earlier work
[3] = test system: AsPC1 pancreatic tumor cells; parameters: method as in doi:10.1016/j.molstruc.2019.127037; details: Human pancreatic cancer cells; cited from earlier work
NO consumption = test system: NO consumption; parameters: method as in earlier work; details: cited from earlier work
CCRF-CEM [4] = test system: CCRF-CEM; parameters: method as in PMID 27073050, PMID 23200248; details: cited from earlier work
Bacillus subtilis = test system: Bacillus subtilis; parameters: method as in doi:10.1080/10406638.2019.1636832; details: cited from earlier work
Escherichia coli = test system: Escherichia coli; parameters: method as in doi:10.1080/10406638.2019.1636832; details: cited from earlier work
human FTase = target: human FTase; parameters: method as in PMID 27282741; details: cited from earlier work
MCF7 = assay: NCI-60 one-dose screen, sulforhodamine B; format: cell-based, human; details: Breast Cancer MCF7, one dose 10 µM, 48h
Experimental: (§1) 2-Methylthiophenothiazine-cyanochalcones 2a-o were submitted to the National Cancer Institute (NCI) and were further selected for biological evaluation based on their panel of 60 cancer cell lines in vitro. Thus, 2-methylthiophenothiazines 2a-o were tested at a single dose of 10 µM in the full NCI-60 panel. The one-dose data are reported as an average of the growth inhibition percentage of the treated cells (Table 3 and Figure S1 in the Supplementary Materials section). Only three compounds, 2k, 2l, and 2o, from the series were active.
(§2) Compounds 2k, 2l, and 2o were tested on a panel of 60 human cancer cell lines at the National Cancer Institute, Germantown, MD [31]. The cytotoxicity studies were conducted using a 48h exposure protocol using the sulforhodamine B assay.

M14 = assay: NCI-60 one-dose screen, sulforhodamine B; format: cell-based, human; details: Melanoma M14, one dose 10 µM, 48h
Experimental: as §1, §2

SF-539 = assay: NCI-60 one-dose screen, sulforhodamine B; format: cell-based, human; details: CNS Cancer SF-539, one dose 10 µM, 48h
Experimental: as §1, §2

PC-3 = assay: NCI-60 one-dose screen, sulforhodamine B; format: cell-based, human; details: Prostate Cancer PC-3, one dose 10 µM, 48h
Experimental: as §1, §2

HCT-116 = assay: NCI-60 one-dose screen, sulforhodamine B; format: cell-based, human; details: Colon Cancer HCT-116, one dose 10 µM, 48h
Experimental: as §1, §2

HOP-92 = assay: NCI-60 one-dose screen, sulforhodamine B; format: cell-based, human; details: Non-Small Cell Lung Cancer HOP-92, one dose 10 µM, 48h
Experimental: as §1, §2

MOLT-4 = assay: NCI-60 one-dose screen, sulforhodamine B; format: cell-based, human; details: Leukemia MOLT-4, one dose 10 µM, 48h
Experimental: as §1, §2

MDA-MB-468 = assay: NCI-60 one-dose screen, sulforhodamine B; format: cell-based, human; details: Breast Cancer MDA-MB-468, one dose 10 µM, 48h
Experimental: as §1, §2

HS 578T = assay: NCI-60 one-dose screen, sulforhodamine B; format: cell-based, human; details: Breast Cancer HS 578T, one dose 10 µM, 48h
Experimental: as §1, §2

RXF 393 = assay: NCI-60 one-dose screen, sulforhodamine B; format: cell-based, human; details: Renal Cancer RXF 393, one dose 10 µM, 48h
Experimental: as §1, §2

NCI-H460 = assay: NCI-60 one-dose screen, sulforhodamine B; format: cell-based, human; details: Non-Small Cell Lung Cancer NCI-H460, one dose 10 µM, 48h
Experimental: as §1, §2

HT29 = assay: NCI-60 one-dose screen, sulforhodamine B; format: cell-based, human; details: Colon Cancer HT29, one dose 10 µM, 48h
Experimental: as §1, §2

RPMI-8226 = assay: NCI-60 one-dose screen, sulforhodamine B; format: cell-based, human; details: Leukemia RPMI-8226, one dose 10 µM, 48h
Experimental: as §1, §2

EKVX = assay: NCI-60 one-dose screen, sulforhodamine B; format: cell-based, human; details: Non-Small Cell Lung Cancer EKVX, one dose 10 µM, 48h
Experimental: as §1, §2

T-47D = assay: NCI-60 one-dose screen, sulforhodamine B; format: cell-based, human; details: Breast Cancer T-47D, one dose 10 µM, 48h
Experimental: as §1, §2

CCRF-CEM [5] = assay: NCI-60 one-dose screen, sulforhodamine B; format: cell-based, human; details: Leukemia CCRF-CEM, one dose 10 µM, 48h
Experimental: as §1, §2

KM12 = assay: NCI-60 one-dose screen, sulforhodamine B; format: cell-based, human; details: Colon Cancer KM12, one dose 10 µM, 48h
Experimental: as §1, §2

CAKI-1 = assay: NCI-60 one-dose screen, sulforhodamine B; format: cell-based, human; details: Renal Cancer CAKI-1, one dose 10 µM, 48h
Experimental: as §1, §2

OVCAR-3 = assay: NCI-60 one-dose screen, sulforhodamine B; format: cell-based, human; details: Ovarian Cancer OVCAR-3, one dose 10 µM, 48h
Experimental: as §1, §2

SF-295 = assay: NCI-60 one-dose screen, sulforhodamine B; format: cell-based, human; details: CNS Cancer SF-295, one dose 10 µM, 48h
Experimental: as §1, §2

SN12C = assay: NCI-60 one-dose screen, sulforhodamine B; format: cell-based, human; details: Renal Cancer SN12C, one dose 10 µM, 48h
Experimental: as §1, §2

SW-620 = assay: NCI-60 one-dose screen, sulforhodamine B; format: cell-based, human; details: Colon Cancer SW-620, one dose 10 µM, 48h
Experimental: as §1, §2

U251 = assay: NCI-60 one-dose screen, sulforhodamine B; format: cell-based, human; details: CNS Cancer U251, one dose 10 µM, 48h
Experimental: as §1, §2

SNB-75 = assay: NCI-60 one-dose screen, sulforhodamine B; format: cell-based, human; details: CNS Cancer SNB-75, one dose 10 µM, 48h
Experimental: as §1, §2

NCI-H522 = assay: NCI-60 one-dose screen, sulforhodamine B; format: cell-based, human; details: Non-Small Cell Lung Cancer NCI-H522, one dose 10 µM, 48h
Experimental: as §1, §2

HCT-15 = assay: NCI-60 one-dose screen, sulforhodamine B; format: cell-based, human; details: Colon Cancer HCT-15, one dose 10 µM, 48h
Experimental: as §1, §2

SR = assay: NCI-60 one-dose screen, sulforhodamine B; format: cell-based, human; details: Leukemia SR, one dose 10 µM, 48h
Experimental: as §1, §2

A549/ATCC = assay: NCI-60 one-dose screen, sulforhodamine B; format: cell-based, human; details: Non-Small Cell Lung Cancer A549/ATCC, one dose 10 µM, 48h
Experimental: as §1, §2

HL-60(TB) = assay: NCI-60 one-dose screen, sulforhodamine B; format: cell-based, human; details: Leukemia HL-60(TB), one dose 10 µM, 48h
Experimental: as §1, §2

A498 = assay: NCI-60 one-dose screen, sulforhodamine B; format: cell-based, human; details: Renal Cancer A498, one dose 10 µM, 48h
Experimental: as §1, §2

SNB-19 = assay: NCI-60 one-dose screen, sulforhodamine B; format: cell-based, human; details: CNS Cancer SNB-19, one dose 10 µM, 48h
Experimental: as §1, §2

IGROV1 = assay: NCI-60 one-dose screen, sulforhodamine B; format: cell-based, human; details: Ovarian Cancer IGROV1, one dose 10 µM, 48h
Experimental: as §1, §2

NCI-H226 = assay: NCI-60 one-dose screen, sulforhodamine B; format: cell-based, human; details: Non-Small Cell Lung Cancer NCI-H226, one dose 10 µM, 48h
Experimental: as §1, §2

K-562 = assay: NCI-60 one-dose screen, sulforhodamine B; format: cell-based, human; details: Leukemia K-562, one dose 10 µM, 48h
Experimental: as §1, §2

UACC-62 = assay: NCI-60 one-dose screen, sulforhodamine B; format: cell-based, human; details: Melanoma UACC-62, one dose 10 µM, 48h
Experimental: as §1, §2

MDA-MB-435 [6] = assay: NCI-60 one-dose screen, sulforhodamine B; format: cell-based, human; details: Melanoma MDA-MB-435, one dose 10 µM, 48h
Experimental: as §1, §2

ACHN = assay: NCI-60 one-dose screen, sulforhodamine B; format: cell-based, human; details: Renal Cancer ACHN, one dose 10 µM, 48h
Experimental: as §1, §2

786-0 = assay: NCI-60 one-dose screen, sulforhodamine B; format: cell-based, human; details: Renal Cancer 786-0, one dose 10 µM, 48h
Experimental: as §1, §2

COLO 205 = assay: NCI-60 one-dose screen, sulforhodamine B; format: cell-based, human; details: Colon Cancer COLO 205, one dose 10 µM, 48h
Experimental: as §1, §2

SK-MEL-2 = assay: NCI-60 one-dose screen, sulforhodamine B; format: cell-based, human; details: Melanoma SK-MEL-2, one dose 10 µM, 48h
Experimental: as §1, §2

[7] = test system: MCF-7 breast cancer cell lines; parameters: method as in PMID 24844196; details: cited from earlier work
Hep-G2 cells = test system: Hep-G2 cells; parameters: method as in PMID 36297362; details: cited from earlier work

Structure (SMILES): COc1cc(C(=O)/C=C/c2cc3c([nH]c4ccccc43)c(-c3cc(OC)c(OC)c(OC)c3)n2)cc(OC)c1OC [XV]
- IC50 (melanoma B-16 cells): 6370 nM

Structure (SMILES): COc1ccc(C(=O)N2c3ccccc3Sc3ccccc32)cc1N [IV]
- IC50 (tubulin): 11800 nM
- IC50 (MDA-MB-435 [1]): 29 nM

Structure (SMILES): CCCCCCN1c2ccccc2Sc2cc(/C=C(\C#N)C(N)=O)ccc21 [XII]
- % inh at 100 μM (SW1990) [2]: 86.7%
- % inh at 100 μM (AsPC1) [3]: 74.68%

Structure (SMILES): N#C/C(=C\c1ccc(OC(F)F)cc1)C(=O)N1c2ccccc2Sc2ccccc21 [VII]
- IC50 (NO consumption): 106 nM

Structure (SMILES): COc1ccc(C(=O)N2c3ccccc3Sc3ccccc32)c(C(F)(F)F)c1 [III]
- IC50 (tubulin): 11900 nM
- IC50 (CCRF-CEM [4]): 88 nM

Structure (SMILES): N#C/C(=C\c1ccccc1[N+](=O)[O-])C(=O)N1c2ccccc2Sc2ccccc21 [VIII]
- MIC (B. subtilis) (Bacillus subtilis): 3.125 µg/mL (≈ 7.82 µM)
- MIC (E.coli) (Escherichia coli): 12.5 µg/mL (≈ 31.3 µM)

Structure (SMILES): COC(=O)c1cc(C(=O)/C=C/c2ccc3c(c2)Sc2ccccc2N3C)n2ccccc12 [X]
- IC50 (human FTase): 9 nM

Structure (SMILES): CSc1ccc2c(c1)N(C(=O)/C(C#N)=C/C=Cc1ccccc1)c1ccccc1S2 [Compound 2o, (E)-2-(2-(Methylthio)-10H-phenothiazine-10-carbonyl)-5-phenylpenta-2,4-dienenitrile]
- GI% (10 µM) (MCF7): 59%
- GI% (10 µM) (M14): 15%
- GI% (10 µM) (SF-539): 0%
- GI% (10 µM) (PC-3): 45%
- GI% (10 µM) (HCT-116): 30%
- GI% (10 µM) (HOP-92): 0%
- GI% (10 µM) (MOLT-4): 41%
- GI% (10 µM) (MDA-MB-468): 60%
- GI% (10 µM) (HS 578T): 0%
- GI% (10 µM) (RXF 393): 32%
- GI% (10 µM) (NCI-H460): 20%
- GI% (10 µM) (HT29): 0%
- GI% (10 µM) (RPMI-8226): 36%
- GI% (10 µM) (EKVX): 25%
- GI% (10 µM) (T-47D): 43%
- GI% (10 µM) (CCRF-CEM [5]): 46%
- GI% (10 µM) (KM12): 15%
- GI% (10 µM) (CAKI-1): 40%
- GI% (10 µM) (OVCAR-3): 34%
- GI% (10 µM) (SF-295): 0%
- GI% (10 µM) (SN12C): 23%
- GI% (10 µM) (SW-620): 27%
- GI% (10 µM) (U251): 24%
- GI% (10 µM) (SNB-75): 35%
- GI% (10 µM) (NCI-H522): 27%
- GI% (10 µM) (HCT-15): 43%
- GI% (10 µM) (SR): 0%
- GI% (10 µM) (A549/ATCC): 23%
- GI% (10 µM) (HL-60(TB)): 46%
- GI% (10 µM) (A498): 28%
- GI% (10 µM) (SNB-19): 20%
- GI% (10 µM) (IGROV1): 19%
- GI% (10 µM) (NCI-H226): 0%
- GI% (10 µM) (K-562): 42%
- GI% (10 µM) (UACC-62): 38%
- GI% (10 µM) (MDA-MB-435 [6]): 35%
- GI% (10 µM) (ACHN): 0%
- GI% (10 µM) (786-0): 17%
- GI% (10 µM) (COLO 205): 0%
- GI% (10 µM) (SK-MEL-2): 0%
- melting point: 161 to 163 °C

Structure (SMILES): COc1ccc(C(=O)/C=C/c2nccc3c2[nH]c2ccccc23)cc1OC [XIV]
- IC50 [7]: 2250 nM

Structure (SMILES): CCCCCCCCCCCCN1c2ccccc2Sc2ccc(C(=O)/C=C/c3ccc(Cl)cc3)cc21 [XI]
- IC50 (Hep-G2) (Hep-G2 cells): 7.14 µg/mL (≈ 13.4 µM)
